According to PMC10095932 (Molecules, 2023):
Where a SMILES comes first, the peptide text is derived from it. Bridges are numbered along the chain shown (N, C = ends).

Legend:
human NPR-A = target: T1, human NPR-A (Homo sapiens, UniProt P16066); experiment: cGMP ALPHAscreen, cGMP production in HEK 293 cells transiently overexpressing hNPR-A; assay type: cell-based; conditions: HEK 293 cells overexpressing hNPR-A
T1 construct: expressed in transfected cells; host or cells: HEK 293 cells, transient, Lipofectamine 2000
T1 sequence (P16066 33-1061): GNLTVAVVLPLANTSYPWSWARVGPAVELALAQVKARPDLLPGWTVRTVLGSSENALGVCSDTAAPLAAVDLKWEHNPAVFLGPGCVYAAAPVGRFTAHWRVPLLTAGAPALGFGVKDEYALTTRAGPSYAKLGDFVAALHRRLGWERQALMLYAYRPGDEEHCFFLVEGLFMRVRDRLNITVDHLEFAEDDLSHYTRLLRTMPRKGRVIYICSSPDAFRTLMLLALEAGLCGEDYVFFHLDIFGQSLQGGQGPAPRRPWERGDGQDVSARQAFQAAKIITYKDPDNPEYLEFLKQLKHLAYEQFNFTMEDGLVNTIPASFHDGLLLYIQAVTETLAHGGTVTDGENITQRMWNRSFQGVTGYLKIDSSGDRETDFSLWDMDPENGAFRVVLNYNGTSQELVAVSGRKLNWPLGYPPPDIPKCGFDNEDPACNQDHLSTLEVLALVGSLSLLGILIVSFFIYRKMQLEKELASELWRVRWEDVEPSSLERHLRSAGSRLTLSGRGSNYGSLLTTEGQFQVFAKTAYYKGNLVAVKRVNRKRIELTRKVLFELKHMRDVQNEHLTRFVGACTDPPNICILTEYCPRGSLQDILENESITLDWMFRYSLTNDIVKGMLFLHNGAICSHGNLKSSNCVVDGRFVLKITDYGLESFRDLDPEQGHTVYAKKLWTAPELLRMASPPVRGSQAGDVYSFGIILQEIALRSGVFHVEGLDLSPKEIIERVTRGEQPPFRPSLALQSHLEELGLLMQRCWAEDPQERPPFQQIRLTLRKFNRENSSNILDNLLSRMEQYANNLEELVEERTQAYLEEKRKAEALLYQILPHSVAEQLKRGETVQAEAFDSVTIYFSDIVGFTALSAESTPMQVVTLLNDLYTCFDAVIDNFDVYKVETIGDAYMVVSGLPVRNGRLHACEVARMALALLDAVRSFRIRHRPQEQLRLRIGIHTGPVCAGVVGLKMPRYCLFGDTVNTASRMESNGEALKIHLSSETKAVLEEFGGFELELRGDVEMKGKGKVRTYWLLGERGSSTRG
Method: Cells were cultured at 5% CO2 and 37 °C. HEK 293 cells were cultured in high glucose DMEM (Gibco, Carlsbad, CA, USA) supplemented with 10% FBS, and 1% penicillin/streptomycin. HEK 293 cells were seeded in media lacking penicillin/streptomycin 24 to 48 h pre-transfection. PC12 cells were cultured in high glucose DMEM (Gibco) supplemented with 10% FBS and 1% penicillin/streptomycin.
HEK 293 cells were transfected using the lipofectamine 2000 transfection protocol (Invitrogen). Cells (95% confluence) were transfected with 45% pcDNA3.1/hNPR-A, 45% pcDNA3.1, and 10% pEGFP-NI to the optimal DNA concentration specified in the protocol. The co-transfection with pEGFP-NI plasmid allowed the determination of the transfection efficiency. This was assessed by the estimation of the number of GFP-expressing cells using an Olympus IX70 inverted fluorescence microscope. Transfected cells were used for assay purposes within 24 h.
The cGMP ALPHAscreen was performed using the ALPHAscreen Protein A detection kit and the biotinylated cGMP supplement (Perkin Elmer, Waltham, MA, USA) with rabbit anti-cGMP polyclonal antibody (Biovision, Mountain View, CA, USA). Cells were detached from the flask and the resulting pellet was resuspended in stimulation buffer (HBSS supplemented with 0.1% w/v BSA and 1 mM IBMX at 37 °C). Cells were added to a white 384-well Optiplate (Perkin Elmer, Waltham, USA) to 30,000 cells per well for HEK 293 cells and 10,000 cells per well for PC12 cells. Cells were incubated with different concentrations of test peptides (concentration range of 1 × 10^−5 to 1 × 10^−11 M in stimulation buffer) at 37 °C for 30 min. Cells were lysed with lysis buffer (1 M HEPES, 0.3% Tween-20, 1% BSA in H2O, pH 7.4). Then 5 μL acceptor-bead mix was added to each well under subdued lighting conditions, followed by 5 μL of donor-bead mix. Plates were incubated for ~12 h, slowly shaking at room temperature. After incubation, the ALPHAscreen signal was measured using an EnVision plate reader (Perkin Elmer). The standard curve consisted of cGMP in a concentration range of 1 × 10^−6 to 1 × 10^−12 M. All data points were acquired in triplicate and were analyzed using GraphPad Prism 5.0 software (GraphPad Software, Inc., San Diego, CA, USA).

NEP = target: T2, NEP (Homo sapiens, UniProt P08473); experiment: Stability to neutral endopeptidase 24.11 (NEP); assay type: in vitro ADME; conditions: 3 h; 100 μL of 500 μM peptide, 500 ng NEP, 100 mM Tris.HCl, 150 mM NaCl, pH 7.4, 37 °C, RP-HPLC peak height
T2 construct: purchased R&D Systems (Minneapolis, MN, USA)
Method: NEP and plasmin stability: About 100 μL of 500 μM peptide was incubated with 500 ng NEP (activity 400 pmol min^−1 μg^−1) or 10 μg plasmin (0.51 U mg^−1, 0.51 μmol min^−1 mg^−1) in 100 mM Tris.HCl and 150 mM NaCl (pH 7.4) at 37 °C. Then, 50 μL aliquots were removed at designated times, quenched by heating to 100 °C for 4 min, and stored at −20 °C until subjected to RP-HPLC analysis.

T2 sequence (P08473 whole entry): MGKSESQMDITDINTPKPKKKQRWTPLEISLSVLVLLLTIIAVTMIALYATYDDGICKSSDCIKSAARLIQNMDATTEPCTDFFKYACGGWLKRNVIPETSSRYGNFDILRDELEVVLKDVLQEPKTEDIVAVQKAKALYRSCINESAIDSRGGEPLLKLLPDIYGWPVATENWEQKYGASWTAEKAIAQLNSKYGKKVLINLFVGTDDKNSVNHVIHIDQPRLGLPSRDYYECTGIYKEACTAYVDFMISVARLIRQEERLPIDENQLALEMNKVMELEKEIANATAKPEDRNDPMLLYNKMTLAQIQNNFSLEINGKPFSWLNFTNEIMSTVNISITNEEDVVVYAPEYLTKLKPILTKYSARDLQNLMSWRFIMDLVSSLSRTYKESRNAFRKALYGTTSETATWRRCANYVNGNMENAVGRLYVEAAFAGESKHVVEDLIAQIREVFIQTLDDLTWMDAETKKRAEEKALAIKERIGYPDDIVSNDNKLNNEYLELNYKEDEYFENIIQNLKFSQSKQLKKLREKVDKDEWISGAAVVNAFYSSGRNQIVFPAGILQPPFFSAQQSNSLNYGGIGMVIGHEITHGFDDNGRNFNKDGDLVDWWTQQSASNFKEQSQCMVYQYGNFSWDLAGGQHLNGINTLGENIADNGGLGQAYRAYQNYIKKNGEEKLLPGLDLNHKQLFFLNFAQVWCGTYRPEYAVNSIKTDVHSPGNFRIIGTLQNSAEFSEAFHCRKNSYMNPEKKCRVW

CC[C@H](C)[C@H](NC(=O)[C@H](CCCCN)NC(=O)[C@H](CO)NC(=O)[C@H](CC(=O)O)NC(=O)[C@@H](N)CO)C(=O)NCC(=O)N[C@@H](CC(N)=O)C(=O)NCC(=O)N[C@H]1CSSC[C@@H](C(=O)N[C@@H](CC(N)=O)C(=O)N[C@@H](CCCNC(=N)N)C(=O)N[C@H](C(=O)N[C@@H](CCSC)C(=O)N[C@@H](CCC(N)=O)C(=O)N[C@@H](CC(N)=O)C(=O)N2CCC[C@H]2C(=O)N2CCC[C@H]2C(=O)N[C@@H](CCCCN)C(=O)N[C@@H](CCCCN)C(=O)N[C@@H](Cc2ccccc2)C(=O)N[C@@H](CO)C(=O)NCC(=O)N[C@@H](CCC(=O)O)C(=O)O)[C@@H](C)CC)NC(=O)CNC(=O)[C@H](CC(C)C)NC(=O)CNC(=O)[C@H](CO)NC(=O)[C@H](C(C)C)NC(=O)[C@H](CO)NC(=O)CNC(=O)[C@H]([C@@H](C)CC)NC(=O)[C@H](CCCNC(=N)N)NC(=O)[C@H](CC(=O)O)NC(=O)[C@H](CC(C)C)NC(=O)[C@@H]2CCCN2C(=O)[C@H](Cc2ccccc2)NC(=O)CNC(=O)[C@H](Cc2ccccc2)NC1=O [TNPc] (H-SDSKIGNGCFGFPLDRIGSVSGLGCNRIMQNPPKKFSGE-OH; disulfide 9-25)
Emax at 10 µM (human NPR-A; HEK293, read-out: cGMP production, % of the maximum response (compared with DNP, hANP, hBNP), at 10 μM): ~30% | EC50 (human NPR-A; 30 min at 37 °C, cGMP ALPHAscreen, three separate experiments in triplicate, read-out: hNPR-A EC50 (95% CI), potency to stimulate cGMP production): > 10 µM | state after incubation with NEP (NEP): remained intact
